We go through six compounds from patent US20230181536A1, “ANTICANCER COMBINATION THERAPY WITH N-(1-ACRYLOYL-AZETIDIN-3-YL)-2-((1H-INDAZOL-3-YL)AMINO)METHYL)-1H-IMIDAZOLE-5-CARBOXAMIDE INHIBITOR OF KRAS-G12C” (TAIHO PHARMACEUTICAL CO., LTD., priority 2020, published 2023).

One experiment concerns the target T1, G12C K-Ras4B (1-169) (Homo sapiens, UniProt P01116, G12C).
T1 construct: G12C K-Ras4B (1-169)
Briefly: Test of compounds to determine whether they bind to KRASG12C (LC-MS compound binding rate). The conditions noted are these: final compound concentration of 2 μM, 1 μM protein, 25° C. for 2 hours. The method, then: Test Example 1: A Test of Compounds to Determine Whether they Bind to KRASG12C
Test compounds were prepared in the form of a 10 mM DMSO solution.
Wt K-Ras4B (1-169) and G12C K-Ras4B (1-169) proteins were mixed and diluted with a buffer (1×TBS, 0.1 mM TCEP) to prepare individual 1 μM protein solutions. A 10 mM test compound was diluted tenfold with DMSO to make a 1 mM solution, and then diluted fivefold with DMSO to make a 200 μM solution. The 200 μM solution was further diluted fivefold to make a 40 μM solution. When the final compound concentration was […], 1 μL of a 200 μM test compound was added to 19 μL of a 1 μM protein solution. When the final compound concentration was 2 μM, 1 μL of a 40 μM test compound was added to 19 μL of a 1 μM protein solution. The mixtures were stored in an incubator at 25° C. for 2 hours, and 80 μL of a 1×TBS solution containing 0.2% formic acid was added thereto to end the reaction, followed by LC-MS measurement. LC-MS measurement was performed using Xevo G2-S Q-Tof manufactured by Waters, and reverse-phase chromatography was performed with a desalting column. A mass spectrum of positive ions was obtained by electrospray. For a mass spectrum, a spectrum of a polyvalent ion was collectively converted to a molecular weight by using OpenLynx software by the MaxEnt technique, and a compound binding rate was obtained from the ratio of a signal intensity that corresponds to the molecular weight of a protein to a signal intensity that corresponds to the molecular weight of a compound binding to the protein.
By obtaining the compound binding rate for wt K-Ras4B (1-169) and the compound binding rate for G12C K-Ras4B (1-169) at the same time, information of the selectivity for G12C K-Ras4B (1-169) was obtained at the same time.
The test compounds were measured at their final compound concentration of 2 μM. […] Almost none of the compounds of the disclosure bound to wt K-Ras4B (1-169). The “binding rate” (%) for each of wt K-Ras4B (1-169) and G12C K-Ras4B (1-169) refers to the ratio of the signal intensity of bound forms to the sum of the signal intensity of non-bound forms and the signal intensity of bound forms.

The target of another experiment is T2, KRAS G12C (Homo sapiens, UniProt P01116, G12C).
T2 construct: KRAS G12C (amino acid region: 1-169)
Nature of the experiment: Inhibitory activity on the KRAS G12C nucleotide (GDP-GTP) exchange reaction. In kind it is biochemical. The conditions noted are these: Bodipy FL GDP-bound KRAS G12C 25 nM; preincubation at 25° C. for 4 hours; SOS1 100 nM, GppNHp 1 μM, reaction for 30 minutes. The method, boiled down:
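Bodipy FL-GDP-loaded KRAS G12C (aa 1-169, 25 nM) preincubated with compound 4 h at 25 °C in pH 7.5 Tris buffer, 5% DMSO; exchange started with SOS1 (aa 564-1049, 100 nM) and 1 μM GppNHp for 30 min. Fluorescence change (ex 485/em 520 nm) normalized to DMSO and no-GppNHp controls; IC50 calculated.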

SMILES strings stand for the structures. Where a name gives a salt, the structure may show the parent alone.

For orientation: IC50 means the concentration that gives 50% inhibition. Lower therefore signals greater potency in that assay. For `C=CC(=O)N1C[C@@H](NC(=O)c2c(C)nc(CNc3n[nH]c4cc(Cl)c(C(C)(C)C)cc34)n2C)[C@H]1C` (relative stereo) [Example 52, N-((2R *, 3R*)-1-acryloyl-2-methylazetidin-3-yl)-2-(((5-(tert-butyl)-6-chloro-1H-indazol-3-yl)amino)methyl)-1,4-dimethyl-1H-imidazole-5-carboxamide], the “binding rate for G12C K-Ras4B (1-169)” value on G12C K-Ras4B (1-169) was “B (a binding rate of 60% or more and less than 80% is rated “B,”)”. The compound also had a half-inhibitory concentration (IC50) at KRAS G12C of 38 nM. Regarding `C=CC(=O)N1CC(NC(=O)c2ccc(CNc3n[nH]c4cc(Cl)c(C(C)(C)C)cc34)o2)C1` [Reference Example 2, N-(1-acryloylazetidin-3-yl)-5-(((5-(tert-butyl)-6-chloro-1H-indazol-3-yl)amino)methyl)furan-2-carboxamide, reference compound], the “binding rate for G12C K-Ras4B (1-169)” value at G12C K-Ras4B (1-169) was “E (a binding rate of less than 20% is rated “E.”)”. For the same compound, the IC50 on KRAS G12C was greater than 10000 nM. For the compound `C=CC(=O)N1CC(NC(=O)c2c(-c3ccccc3)nc(CNc3n[nH]c4cc(Cl)c(C(C)(C)C)cc34)n2C)C1` [Reference Example 3, N-(1-acryloylazetidin-3-yl)-2-(((5-(tert-butyl)-6-chloro-1H-indazol-3-yl)amino)methyl)-1-methyl-4-phenyl-1H-imidazole-5-carboxamide, reference compound], on G12C K-Ras4B (1-169), the “binding rate for G12C K-Ras4B (1-169)” value is reported as “E (a binding rate of less than 20% is rated “E.”)”. Moreover, the IC50 against KRAS G12C was greater than 10000 nM. For `C=CC(=O)N1CC(NC(=O)c2c(C(F)F)nc(CNc3n[nH]c4cc(Cl)c(C(C)(C)C)cc34)n2C2CCN(C(C)C)C2)C1` (stereo not shown) [Example 93, N-(1-acryloylazetidin-3-yl)-2-(((5-(tert-butyl)-6-chloro-1H-indazol-3-yl)amino)methyl)-4-(difluoromethyl)-1-(1-isopropylpyrrolidin-3-yl)-1H-imidazole-5-carboxamide formate], in that order: “A (a binding rate of 80% or more is rated “A,”)” and 6 nM.

Turning to `Cc1nc(CNc2n[nH]c3cc(Cl)c(C(C)(C)C)cc23)n(C(C)C)c1C(=O)NC1CN(C(=O)/C=C/CN2CCCCC2)C1` [Example 79, (E)-2-(((5-(tert-butyl)-6-chloro-1H-indazol-3-yl)amino)methyl)-1-isopropyl-4-methyl-N-(1-(4-(piperidin-1-yl)but-2-enoyl)azetidin-3-yl)-1H-imidazole-5-carboxamide], the IC50 on KRAS G12C was determined as 122 nM.

`C=CC(=O)N1CC(NC(=O)c2c(Cl)nc(CNc3n[nH]c4cc(Cl)c(C(C)(C)C)cc34)n2[C@@H]2CCN(C3CC3)C2)C1` [Example 120, (R)-N-(1-acryloylazetidin-3-yl)-2-(((5-(tert-butyl)-6-chloro-1H-indazol-3-yl)amino)methyl)-4-chloro-1-(1-cyclopropylpyrrolidin-3-yl)-1H-imidazole-5-carboxamide] yielded an IC50 on KRAS G12C of 6 nM.
